According to patent US20050220912A1, “Anti-inflammatory composition for treating pelvic endometriosis” (priority 2004, published 2005):

Columns and labels:
[1] = commercially available chondroitin sulfate preparations (cow trachea); cited from earlier work
[2] = Chondroitin sulfate solubility in oils; assay type: physicochemical; settings: in codfish oil, corn oil and olive oil (from the flesh of the olive)
Description: Parallel experiments with codfish oil, corn oil and olive oil (from the flesh of the olive) were comtemplated, but chondroitin sulfate solubility in these oils was insufficient to meet the requirements of the experiment.

[3] = Effect of olive kernel extract on absorption of tritiated chondroitin sulfate in vivo (serum radioactivity after oral capsule); parameters: species or system male Sprague-Dawley rats; settings: serum radioactivity at 8 hours
Method: Chondroitin sulfate was tritiated by New England Nuclear Corp. to a specific activity of 4.3 mCi/ml.
Unlabeled chondroitin sulfate was dissolved in olive kernel extract at a ratio of about 55 w/v chondroitin sulfate powder to about 450 w/v of olive kernel extract (2.9% acidity as oleic acid, 1.03% water, 0.08% hexane). To this solution was added 20.2 microcuries of the labeled chondroitin sulfate. AAA gelatin capsules were filled with the resulting solution using an aluminum template molding device.
The laboratory animals (250 g male Sprague-Dawley rats) were kept overnight without food but with free access to water. One capsule containg the above-described chondroitin sulfate-olive kernel extract solution was given to each rat per os. Control animals were given the equivalent amount of chondroitin, but without olive kernel extract. The animals were then given free access to food. Serum radioactivity was measured 8 hours thereafter in a beta scintillation counter.

Substance: chondroitin sulfate
- Absorption from g.i. tract / absorbed orally [1]: less than 5%
- chondroitin sulfate solubility [2]: insufficient
- dose of labeled chondroitin sulfate that reached the circulation ([3]; control animals, per os capsule without olive kernel extract, n=3): about 3.9%+/−0.4%
- dose of labeled chondroitin sulfate absorbed into the general circulation ([3]; per os capsule, chondroitin sulfate dissolved in olive kernel extract, n=4): about 14.3%+/−0.7%
